# From ChEMBL document CHEMBL3885881, “DrugMatrix”
# Species on record: Rattus norvegicus
# Assay: DrugMatrix - Regimen: Daily Repeat
# Type: toxicity, organism-based, Sprague-Dawley
# Set-up: regimen Daily Repeat, gender Male, age 6-8 weeks
# Conditions: in vivo, sc, route subcutaneous, […]; for ABSOLUTE BASOPHIL / ABSOLUTE EOSINOPHIL / ABSOLUTE LYMPHOCYTE / ABSOLUTE MONOCYTE / ABSOLUTE SEGMENTED NEUTROPHIL / BASOPHIL / EOSINOPHIL / ERYTHROCYTE COUNT / HEMATOCRIT / HEMOGLOBIN / LEUKOCYTE COUNT / LYMPHOCYTE / MEAN CORPUSCULAR HEMOGLOBIN / MEAN CORPUSCULAR HEMOGLOBIN CONCENTRATION / MEAN CORPUSCULAR VOLUME / MONOCYTE / NEUTROPHIL / NUCLEATED RED BLOOD CELLS / PLATELET COUNT: tissue Blood; for ALANINE AMINOTRANSFERASE / ALBUMIN / ALKALINE PHOSPHATASE / ASPARTATE AMINOTRANSFERASE / BLOOD UREA NITROGEN / CARBON DIOXIDE / CHLORIDE / CHOLESTEROL / CREATINE PHOSPHOKINASE / CREATININE / GLUCOSE / LACTATE DEHYDROGENASE / LIPASE / PHOSPHORUS / POTASSIUM / SODIUM / TOTAL BILIRUBIN / TOTAL PROTEIN / URIC ACID: tissue Plasma
# [1] = 150 mg/kg, 120 h, dose level High, time 5 day
# [2] = 72 h, dose 2.8 mg/Kg, dose level Low, time 3 day
# [3] = 120 h, dose 2.8 mg/Kg, dose level Low, time 5 day
smiles,measurement,setting,value
CN(Cc1ccc(C(C)(C)C)cc1)Cc1cccc2ccccc12 [BUTENAFINE],ABSOLUTE BASOPHIL,[1],0 CELLS/uL
same,ABSOLUTE EOSINOPHIL,[1],60.33 CELLS/uL
same,ABSOLUTE LYMPHOCYTE,[1],7925.67 CELLS/uL
same,ABSOLUTE MONOCYTE,[1],152 CELLS/uL
same,ABSOLUTE SEGMENTED NEUTROPHIL,[1],1062 CELLS/uL
same,BASOPHIL,[1],0%
same,EOSINOPHIL,[1],1%
same,ERYTHROCYTE COUNT,[1],5.24 x10E6/uL
same,HEMATOCRIT,[1],32.57%
same,HEMOGLOBIN,[1],12.97 G/DL
same,LEUKOCYTE COUNT,[1],9.2 x10E3/uL
same,LYMPHOCYTE,[1],85.67%
same,MEAN CORPUSCULAR HEMOGLOBIN,[1],24.87 pg
same,MEAN CORPUSCULAR HEMOGLOBIN CONCENTRATION,[1],39.93 G/DL
same,MEAN CORPUSCULAR VOLUME,[1],62.17 fL
same,MONOCYTE,[1],1.33%
same,NEUTROPHIL,[1],12%
same,NUCLEATED RED BLOOD CELLS,[1],0 /100WBC
same,PLATELET COUNT,[1],984.33 x10E3/uL
same,ALANINE AMINOTRANSFERASE,[1],52 u/L
same,ALBUMIN,[1],4.67 G/DL
same,ALKALINE PHOSPHATASE,[1],373 u/L
same,ASPARTATE AMINOTRANSFERASE,[1],90 u/L
same,BLOOD UREA NITROGEN,[1],15.33 mg/dL
same,CARBON DIOXIDE,[1],31.33 mmol/L
same,CHLORIDE,[1],100.33 MEQ/L
same,CHOLESTEROL,[1],54 mg/dL
same,CREATINE PHOSPHOKINASE,[1],434 u/L
same,CREATININE,[1],0.24 mg/dL
same,GLUCOSE,[1],159.67 mg/dL
same,LACTATE DEHYDROGENASE,[1],385.67 u/L
same,LIPASE,[1],12.33 u/L
same,PHOSPHORUS,[1],15.13 mg/dL
same,POTASSIUM,[1],6.75 MEQ/L
same,SODIUM,[1],146.63 MEQ/L
same,TOTAL BILIRUBIN,[1],0.3 mg/dL
same,TOTAL PROTEIN,[1],6.5 G/DL
same,URIC ACID,[1],2.2 mg/dL
same,ABSOLUTE BASOPHIL,[2],0 CELLS/uL
same,ABSOLUTE EOSINOPHIL,[2],44.33 CELLS/uL
same,ABSOLUTE LYMPHOCYTE,[2],13110.67 CELLS/uL
same,ABSOLUTE MONOCYTE,[2],225.33 CELLS/uL
same,ABSOLUTE SEGMENTED NEUTROPHIL,[2],1586.33 CELLS/uL
same,BASOPHIL,[2],0%
same,EOSINOPHIL,[2],0.33%
same,ERYTHROCYTE COUNT,[2],5.44 x10E6/uL
same,HEMATOCRIT,[2],35.13%
same,HEMOGLOBIN,[2],13.83 G/DL
same,LEUKOCYTE COUNT,[2],14.97 x10E3/uL
same,LYMPHOCYTE,[2],87.33%
same,MEAN CORPUSCULAR HEMOGLOBIN,[2],25.4 pg
same,MEAN CORPUSCULAR HEMOGLOBIN CONCENTRATION,[2],39.37 G/DL
same,MEAN CORPUSCULAR VOLUME,[2],64.57 fL
same,MONOCYTE,[2],1.33%
same,NEUTROPHIL,[2],11%
same,NUCLEATED RED BLOOD CELLS,[2],0 /100WBC
same,PLATELET COUNT,[2],1247.33 x10E3/uL
same,ALANINE AMINOTRANSFERASE,[2],51.67 u/L
same,ALBUMIN,[2],4.23 G/DL
same,ALKALINE PHOSPHATASE,[2],485 u/L
same,ASPARTATE AMINOTRANSFERASE,[2],87 u/L
same,BLOOD UREA NITROGEN,[2],14.67 mg/dL
same,CARBON DIOXIDE,[2],28.67 mmol/L
same,CHLORIDE,[2],102 MEQ/L
same,CHOLESTEROL,[2],81 mg/dL
same,CREATINE PHOSPHOKINASE,[2],255.33 u/L
same,CREATININE,[2],0.2 mg/dL
same,GLUCOSE,[2],140.33 mg/dL
same,LACTATE DEHYDROGENASE,[2],340.33 u/L
same,LIPASE,[2],9.67 u/L
same,PHOSPHORUS,[2],12.73 mg/dL
same,POTASSIUM,[2],7.04 MEQ/L
same,SODIUM,[2],146.23 MEQ/L
same,TOTAL BILIRUBIN,[2],0.23 mg/dL
same,TOTAL PROTEIN,[2],6.03 G/DL
same,URIC ACID,[2],1.43 mg/dL
same,ABSOLUTE BASOPHIL,[3],0 CELLS/uL
same,ABSOLUTE EOSINOPHIL,[3],0 CELLS/uL
same,ABSOLUTE LYMPHOCYTE,[3],12003.67 CELLS/uL
same,ABSOLUTE MONOCYTE,[3],90 CELLS/uL
same,ABSOLUTE SEGMENTED NEUTROPHIL,[3],1073 CELLS/uL
same,BASOPHIL,[3],0%
same,EOSINOPHIL,[3],0%
same,ERYTHROCYTE COUNT,[3],5.4 x10E6/uL
same,HEMATOCRIT,[3],34.57%
same,HEMOGLOBIN,[3],13.8 G/DL
same,LEUKOCYTE COUNT,[3],13.17 x10E3/uL
same,LYMPHOCYTE,[3],91%
same,MEAN CORPUSCULAR HEMOGLOBIN,[3],25.6 pg
same,MEAN CORPUSCULAR HEMOGLOBIN CONCENTRATION,[3],39.97 G/DL
same,MEAN CORPUSCULAR VOLUME,[3],64 fL
same,MONOCYTE,[3],0.67%
same,NEUTROPHIL,[3],8.33%
same,NUCLEATED RED BLOOD CELLS,[3],0 /100WBC
same,PLATELET COUNT,[3],1261 x10E3/uL
same,ALANINE AMINOTRANSFERASE,[3],42.67 u/L
same,ALBUMIN,[3],4.27 G/DL
same,ALKALINE PHOSPHATASE,[3],339.33 u/L
same,ASPARTATE AMINOTRANSFERASE,[3],85.33 u/L
same,BLOOD UREA NITROGEN,[3],16.67 mg/dL
same,CARBON DIOXIDE,[3],32.67 mmol/L
same,CHLORIDE,[3],104.67 MEQ/L
same,CHOLESTEROL,[3],68.33 mg/dL
same,CREATINE PHOSPHOKINASE,[3],102 u/L
same,CREATININE,[3],0.21 mg/dL
same,GLUCOSE,[3],147.67 mg/dL
same,LACTATE DEHYDROGENASE,[3],96.33 u/L
same,LIPASE,[3],8.67 u/L
same,PHOSPHORUS,[3],14.27 mg/dL
same,POTASSIUM,[3],7.04 MEQ/L
same,SODIUM,[3],150.5 MEQ/L
same,TOTAL BILIRUBIN,[3],0.2 mg/dL
same,TOTAL PROTEIN,[3],6.33 G/DL
same,URIC ACID,[3],1.7 mg/dL
